Each structure is given as a SMILES string. Some results are limits rather than exact numbers.

The IC50 is the midpoint of a concentration-inhibition curve.

In the test the target is T1, Kv1.3 potassium channel (Homo sapiens, UniProt P22001).
T1 construct: expressed in transfected cells
T1 sequence (P22001 whole entry): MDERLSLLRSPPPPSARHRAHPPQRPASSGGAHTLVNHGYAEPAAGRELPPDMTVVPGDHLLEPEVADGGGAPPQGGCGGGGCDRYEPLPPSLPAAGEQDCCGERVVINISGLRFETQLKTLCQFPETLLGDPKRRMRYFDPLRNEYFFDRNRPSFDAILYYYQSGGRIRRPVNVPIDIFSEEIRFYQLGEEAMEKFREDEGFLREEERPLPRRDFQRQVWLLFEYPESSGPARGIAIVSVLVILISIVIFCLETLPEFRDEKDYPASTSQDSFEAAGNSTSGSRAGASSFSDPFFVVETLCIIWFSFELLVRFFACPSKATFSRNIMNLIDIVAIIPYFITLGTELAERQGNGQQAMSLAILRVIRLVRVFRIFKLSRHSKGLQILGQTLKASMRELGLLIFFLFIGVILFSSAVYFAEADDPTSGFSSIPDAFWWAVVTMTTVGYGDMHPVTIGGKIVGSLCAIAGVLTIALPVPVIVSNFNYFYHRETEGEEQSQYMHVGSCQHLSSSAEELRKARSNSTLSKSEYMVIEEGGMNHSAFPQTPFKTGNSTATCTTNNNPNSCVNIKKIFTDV
The test is described as follows: Kv1.3 potassium channel blocker activity, automated whole-cell patch clamp (Patchliner). It counts as cell-based. The conditions noted are these: CHO-K1 cells stably expressing Kv1.3; whole-cell current, Hill fit. As to the method: Example 9. Evaluation of Kv1.3 Potassium Channel Blocker Activities
This assay is used to evaluate the disclosed compounds' activities as Kv1.3 potassium channel blockers.
CHO-K1 cells stably expressing Kv1.3 were grown in DMEM containing 10% heat-inactivated FBS, 1 mM Sodium Pyruvate, 2 mM L-Glutamine and G418 (500 μg/ml). Cells were grown in culture flasks at 37° C. in a […] incubator.
The cells were bathed in an extracellular solution containing 140 mM NaCl, 4 mM KCl, 2 mM CaCl2, 1 mM MgCl2, 5 mM Glucose, 10 mM HEPES; pH adjusted to 7.4 with NaOH; 295-305 mOsm. The internal solution contained 50 mM KCl, 10 mM NaCl, 60 mM KF, 20 mM EGTA, 10 mM HEPES; pH adjusted to 7.2 with KOH; 285 mOsm. All compounds were dissolved in DMSO at 30 mM. Compound stock solutions were freshly diluted with external solution to concentrations of 30 nM, 100 nM, 300 nM, 1 μM, 3 μM, 10 μM, 30 μM and 100 μM. The highest content of DMSO (0.3%) was present in 100 μM.
The currents were evoked by applying 100 ms depolarizing pulses from −90 mV (holding potential) to +40 mV were applied with 0.1 Hz frequency. Control (compound-free) and compound pulse trains for each compound concentration applied contained 20 pulses. 10-second breaks were used between pulse trains (see Table A below).
Whole-cell current recordings and compound application were enabled by means of an automated patch clamp platform Patchliner (Nanion Technologies GmbH). EPC 10 patch clamp amplifier (HEKA Elektronik Dr. Schulze GmbH) along with Patchmaster software (HEKA Elektronik Dr. Schulze GmbH) was used for data acquisition. Data were sampled at 10 kHz without filtering. Passive leak currents were subtracted online using a P/4 procedure (HEKA Elektronik Dr. Schulze GmbH). Increasing compound concentrations were applied consecutively to the same cell without washouts in between. Total compound incubation time before the next pulse train was not longer than 10 seconds. Peak current inhibition was observed during compound equilibration.
AUC and peak values were obtained with Patchmaster (HEKA Elektronik Dr. Schulze GmbH). To determine IC50, the last single pulse in the pulse train corresponding to a given compound concentration was used. Obtained AUC and peak values in the presence of compound were normalized to control values in the absence of compound. Using Origin (OridinLab), IC50 was derived from data fit to Hill equation: Icompound/Icontrol=(100−A)/(1+([compound]/IC50)nH)+A, where IC50 value is the concentration at which current inhibition is half-maximal, [compound] is the applied compound concentration, A is the fraction of current that is not blocked and nH is the Hill coefficient.
Background: Patch clamp records ionic current or voltage across a cell membrane.
With `Cc1ccc(O)c([C@@H]2CCN3C(=O)[C@@H](CO)NC(=O)[C@@H]3C2)c1Cl` (relative stereo) [Compound 28, (8R,9aS)-rel-8-(2-chloro-6-hydroxy-3-methylphenyl)-3-((3R)-hydroxymethyl)-hexahydro-2H-pyrido[1,2-a]pyrazine-1,4-dione], the 50% inhibitory concentration (IC50) was < 1 µM.

Consider `NC[C@H]1NC(=O)[C@@H]2C[C@H](c3c(O)ccc(Cl)c3Cl)CCN2C1=O` (relative stereo) [Compound 38, (8R,9aS)-rel-3-((3R)-aminomethyl)-8-(2,3-dichloro-6-hydroxyphenyl)-hexahydro-2H-pyrido[1,2-a]pyrazine-1,4-dione; trifluoroacetic acid], for which the concentration for half-maximal inhibition (IC50) was < 1 µM.

Take `Cc1c(Cl)ccc(O)c1[C@@H]1CCN2C(=O)[C@@H](CO)NC(=O)[C@@H]2C1` (relative stereo) [Compound 49, (8R,9aS)-rel-8-(3-chloro-6-hydroxy-2-methylphenyl)-3-((3R)-hydroxymethyl)-hexahydro-2H-pyrido[1,2-a]pyrazine-1,4-dione]: the IC50 was < 10 µM.

In the case of `O=C1NC(=O)N2CC[C@@H](c3c(O)ccc(Cl)c3Cl)C[C@@H]12` (single isomer, unassigned; diastereoisomer 2) [Compound 19, 7-(2,3-dichloro-6-hydroxyphenyl)tetrahydro-imidazo[1,5-a]pyridine-1,3(2H,5H)-dione diastereoisomer 2], the IC50 was < 1 µM.

For the compound `O=C1[C@H]2C[C@H](O)CN2C(=O)[C@H]2C[C@@H](c3c(O)ccc(Cl)c3Cl)CCN12` (single isomer, unassigned; isomer 1) [Compound 23, 7-(2,3-dichloro-6-hydroxyphenyl)-2-hydroxyhexahydro-1H-pyrido[1,2-a]pyrrolo[1,2-d]pyrazine-5,11(5aH,11aH)-dione isomer 1], the IC50 was < 10 µM.

Regarding `O=C1[C@@H]2C[C@H](c3c(O)ccc(Cl)c3Cl)CCN2C(=O)[C@@H]2[C@H](O)CCN12` (single isomer, unassigned; isomer 1) [Compound 29, 7-(2,3-dichloro-6-hydroxyphenyl)-1-hydroxyhexahydro-1H-pyrido[1,2-a]pyrrolo[1,2-d]pyrazine-5,11(5aH,11aH)-dione isomer 1], the IC50 was < 10 µM.

As to `O=C1[C@H]2[C@H](O)CCN2C(=O)[C@H]2C[C@@H](c3c(O)ccc(Cl)c3Cl)CCN12` (single isomer, unassigned; isomer 2) [Compound 17, 7-(2,3-dichloro-6-hydroxyphenyl)-1-hydroxyhexahydro-1H-pyrido[1,2-a]pyrrolo[1,2-d]pyrazine-5,11(5aH,11aH)-dione isomer 2], the IC50 is < 1 µM.

Consider `O=C1[C@H]2C[C@@H](c3c(O)ccc(Cl)c3Cl)CCN2C(=O)CN1C1CC(O)C1` (single isomer, unassigned; isomer 3) [Compound 34, 8-(2,3-dichloro-6-hydroxyphenyl)-2-[3-hydroxycyclobutyl]-hexahydropyrido[1,2-a]pyrazine-1,4-dione isomer 3], for which the IC50 was < 10 µM.

As to `O=C1[C@@H]2C[C@H](O)CN2C(=O)[C@H]2C[C@@H](c3c(O)ccc(Cl)c3Cl)CCN12` (single isomer, unassigned; isomer 3) [Compound 45, 7-(2,3-dichloro-6-hydroxyphenyl)-2-hydroxyhexahydro-1H-pyrido[1,2-a]pyrrolo[1,2-d]pyrazine-5,11(5aH,11aH)-dione isomer 3], the 50% inhibitory concentration (IC50) was < 10 µM.

For `O=C1[C@H]2[C@H](O)CCN2C(=O)[C@@H]2C[C@H](c3c(O)ccc(Cl)c3Cl)CCN12` (single isomer, unassigned; isomer 3) [Compound 69, 7-(2,3-dichloro-6-hydroxyphenyl)-1-hydroxyhexahydro-1H-pyrido[1,2-a]pyrrolo[1,2-d]pyrazine-5,11(5aH,11aH)-dione isomer 3], the half-inhibitory concentration (IC50) was < 1 µM.

`O=C1[C@H]2C[C@@H](c3c(O)ccc(Cl)c3Cl)CCN2C(=O)CN1C1CC(O)C1` (single isomer, unassigned; isomer 4) [Compound 5, 8-(2,3-dichloro-6-hydroxyphenyl)-2-[3-hydroxycyclobutyl]-hexahydropyrido[1,2-a]pyrazine-1,4-dione isomer 4]: the 50% inhibitory concentration (IC50) was < 10 µM.

On to `C[C@@H]1NC(=O)C2CC(c3c(O)ccc(Cl)c3Cl)CCN2C1=O` (stereo partly drawn) [Compound 4, (3S)-8-(2,3-dichloro-6-hydroxyphenyl)-3-methyl-octahydro-1H-pyrido[1,2-a]pyrazine-1,4-dione], for which the IC50 was < 10 µM.

In the case of `O=C1[C@H]2C[C@@H](c3cc(Cl)c(Cl)cc3O)CCN2C(=O)CN1C1CNC1` [Compound 10, (8S,9aR)-2-(azetidin-3-yl)-8-(4,5-dichloro-2-hydroxyphenyl)hexahydro-4H-pyrido[1,2-a]pyrazine-1,4(6H)-dione], the half-maximal inhibitory concentration (IC50) was < 10 µM.

In the case of `CC[C@H]1NC(=O)[C@H]2C[C@@H](c3c(O)ccc(Cl)c3Cl)CCN2C1=O` [Compound 11, (8S,9aR)-8-(2,3-dichloro-6-hydroxyphenyl)-3-(3R)-ethyl-hexahydro-2H-pyrido[1,2-a]pyrazine-1,4-dione], the concentration for half-maximal inhibition (IC50) was < 1 µM.

Consider `CN1C(=O)[C@H]2C[C@@H](c3c(O)ccc(Cl)c3Cl)CCN2C(=O)[C@H]1CO` [Compound 13, (3R,8S,9aR)-8-(2,3-dichloro-6-hydroxyphenyl)-3-(hydroxymethyl)-2-methyl-hexahydropyrido[1,2-a]pyrazine-1,4-dione], for which the IC50 was < 30 µM.

Consider `O=C1NNC(=O)N2CC[C@H](c3c(O)ccc(Cl)c3Cl)C[C@H]12` [Compound 15, (8S,9aR)-8-(2,3-dichloro-6-hydroxyphenyl)hexahydro-4H-pyrido[1,2-d][1,2,4]triazine-1,4(6H)-dione], for which the half-maximal inhibitory concentration (IC50) was < 10 µM.

Turning to `C[C@@H](O)[C@H]1NC(=O)[C@H]2C[C@@H](c3c(O)ccc(Cl)c3Cl)CCN2C1=O` [Compound 16, (3R,8S,9aR)-8-(2,3-dichloro-6-hydroxyphenyl)-3-[(1R)-1-hydroxyethyl]-hexahydro-2H-pyrido[1,2-a]pyrazine-1,4-dione], the IC50 was < 10 µM.

With `O=C1[C@H]2C[C@@H](c3c(O)ccc(Cl)c3Cl)CCN2C(=O)CN1C(CO)CO` [Compound 21, (8S,9aR)-8-(2,3-dichloro-6-hydroxyphenyl)-2-(1,3-dihydroxypropan-2-yl)hexahydro-4H-pyrido[1,2-a]pyrazine-1,4(6H)-dione], the IC50 was < 10 µM.

As to `O=C1[C@H]2[C@@H](O)CCN2C(=O)[C@H]2C[C@@H](c3c(O)ccc(Cl)c3Cl)CCN12` [Compound 25, (1S,5aR,7S,11aR)-7-(2,3-dichloro-6-hydroxyphenyl)-1-hydroxyhexahydro-1H-pyrido[1,2-a]pyrrolo[1,2-d]pyrazine-5,11(5aH,11aH)-dione], the half-inhibitory concentration (IC50) is < 10 µM.

Consider `NN1C(=O)[C@H]2C[C@@H](c3c(O)ccc(Cl)c3Cl)CCN2C1=O` [Compound 27, (7S,8aR)-2-amino-7-(2,3-dichloro-6-hydroxyphenyl)tetrahydro-imidazo[1,5-a]pyridine-1,3(2H,5H)-dione], for which the half-maximal inhibitory concentration (IC50) was < 1 µM.

For the compound `O=C1N[C@H](CO)C(=O)N2CC(c3c(O)ccc(Cl)c3Cl)CC12` (stereo partly drawn) [Compound 31, (3R)-7-(2,3-dichloro-6-hydroxyphenyl)-3-(hydroxymethyl)hexahydro-pyrrolo[1,2-a]pyrazine-1,4-dione], the IC50 was < 1 µM.

Regarding `O=C1NNC(=O)N2CC[C@@H](c3c(O)ccc(Cl)c3Cl)C[C@@H]12` [Compound 33, (8R,9aS)-8-(2,3-dichloro-6-hydroxyphenyl)hexahydro-4H-pyrido[1,2-d][1,2,4]triazine-1,4(6H)-dione], the IC50 was < 1 µM.

For the compound `O=C1[C@H]2C[C@@H](c3c(O)ccc(Cl)c3Cl)CCN2C(=O)CN1CCO` [Compound 37, (8S,9aR)-8-(2,3-dichloro-6-hydroxyphenyl)-2-(2-hydroxyethyl)-hexahydropyrido[1,2-a]pyrazine-1,4-dione], the IC50 was < 10 µM.

Regarding `CC(C)[C@@H](O)[C@@H]1NC(=O)[C@H]2C[C@@H](c3c(O)ccc(Cl)c3Cl)CCN2C1=O` [Compound 39, (3S,8S,9aR)-8-(2,3-dichloro-6-hydroxyphenyl)-3-[(1R)-1-hydroxy-2-methylpropyl]-hexahydro-2H-pyrido[1,2-a]pyrazine-1,4-dione], the IC50 is < 10 µM.

These data come from patent publication US20230040182A1, “ARYL HETEROBICYCLIC COMPOUNDS AS Kv1.3 POTASSIUM SHAKER CHANNEL BLOCKERS” (priority 2019, published 2023).
